Assay results taken from ChEMBL document CHEMBL3992518, “Peptide Macrocycle Inhibitor of Coagulation Factor XII with Subnanomolar Affinity and High Target Selectivity” (J Med Chem, 2017).
*1 amine or outer side, *2 acyl side, *3 side chain or, on linkers, in order; H or OH if unused. Where a SMILES comes first, the peptide text is derived from it. Bridges are numbered along the chain shown (N, C = ends). [ ]: non-standard residue; d: D form. TATA = O=C(CC[*:1])N1CN(C(=O)CC[*:2])CN(C(=O)CC[*:3])C1; hLeu = CC(C)CC[C@H](N)C(=O)O; Nva = CCC[C@H](N)C(=O)O

What follows are molecules tested against T1, Coagulation factor XII (Homo sapiens, UniProt P00748) (assay: Inhibition of human beta factor 12a using fluorogenic substrate Boc-Gln-Gly-Arg-AMC preincubated for 10 mins followed by addition of substrate measured every min for 30 mins).
T1 sequence (P00748 whole entry): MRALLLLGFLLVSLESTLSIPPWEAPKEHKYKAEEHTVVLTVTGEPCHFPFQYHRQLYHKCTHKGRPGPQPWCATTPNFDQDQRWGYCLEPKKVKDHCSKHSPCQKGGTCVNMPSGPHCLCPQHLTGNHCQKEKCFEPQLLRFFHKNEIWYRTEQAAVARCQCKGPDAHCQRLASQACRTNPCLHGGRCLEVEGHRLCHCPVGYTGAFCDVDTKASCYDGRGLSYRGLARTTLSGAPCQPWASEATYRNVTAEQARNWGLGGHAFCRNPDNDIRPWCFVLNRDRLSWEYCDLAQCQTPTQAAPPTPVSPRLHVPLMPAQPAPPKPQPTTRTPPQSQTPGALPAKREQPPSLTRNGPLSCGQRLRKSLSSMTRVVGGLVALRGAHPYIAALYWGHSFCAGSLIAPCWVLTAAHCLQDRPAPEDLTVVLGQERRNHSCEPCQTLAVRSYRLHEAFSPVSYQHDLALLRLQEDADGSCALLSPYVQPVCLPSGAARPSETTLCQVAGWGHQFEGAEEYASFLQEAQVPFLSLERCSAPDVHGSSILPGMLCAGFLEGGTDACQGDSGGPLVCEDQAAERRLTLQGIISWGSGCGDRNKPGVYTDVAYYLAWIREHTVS

First: CC(C)C[C@@H]1NC(=O)[C@H](CCC(N)=O)NC(=O)[C@H](CCCNC(=N)N)NC(=O)[C@@H]2CSCCC(=O)N3CN(CN(C3)C(=O)CCSC[C@H](NC(=O)[C@@H](N)CCCNC(=N)N)C(=O)N[C@@H](Cc3ccccc3)C(=O)N[C@@H](CCCNC(=N)N)C(=O)N[C@@H](CC(C)C)C(=O)N3CCC[C@H]3C(=O)N2)C(=O)CCSC[C@@H](C(=O)O)NC(=O)[C@H](CCCNC(=N)N)NC1=O (H-RCFRLPCRQLRC-OH; linker 2-7-12 via TATA)
Second: CC(C)C[C@@H]1NC(=O)[C@H](CCC(N)=O)NC(=O)[C@H](CCCNC(=N)N)NC(=O)[C@@H]2CSCCC(=O)N3CN(CN(C3)C(=O)CCSC[C@H](NC(=O)[C@@H](N)C(C)C)C(=O)N[C@@H](Cc3ccccc3)C(=O)N[C@@H](CCCNC(=N)N)C(=O)N[C@@H](CC(C)C)C(=O)N3CCC[C@H]3C(=O)N2)C(=O)CCSC[C@@H](C(=O)N[C@@H](CCCNC(=N)N)C(=O)O)NC(=O)[C@H](CCCNC(=N)N)NC1=O (H-VCFRLPCRQLRCR-OH; linker 2-7-12 via TATA)
The Ki of the first is 11-fold lower: 0.0093 µM for the first, 0.099 µM for the second. The first binds more tightly here.

First: CCC[C@@H]1NC(=O)[C@H](CCC(N)=O)NC(=O)[C@H](CCCNC(=N)N)NC(=O)[C@@H]2CSCCC(=O)N3CN(CN(C3)C(=O)CCSC[C@H](NC(=O)[C@@H](N)CCCNC(=N)N)C(=O)N[C@@H](Cc3ccccc3)C(=O)N[C@@H](CCCNC(=N)N)C(=O)N[C@@H](CC(C)C)C(=O)N3CCC[C@H]3C(=O)N2)C(=O)CCSC[C@@H](C(=O)N[C@@H](CCCNC(=N)N)C(=O)N[C@@H](Cc2c[nH]c3ccccc23)C(=O)O)NC(=O)[C@H](CCCNC(=N)N)NC1=O
Second: CCC[C@@H]1NC(=O)[C@H](CCCNC(=N)N)NC(=O)[C@H](Cc2ccccc2)NC(=O)[C@@H](NC(=O)[C@@H](N)CCCNC(=N)N)CSCCC(=O)N2CN3CN(C2)C(=O)CCSC[C@H](NC(=O)[C@@H]2CCCN2C1=O)C(=O)N[C@@H](CCCNC(=N)N)C(=O)N[C@@H](CCC(N)=O)C(=O)N[C@@H](CC(C)C)C(=O)N[C@@H](CCCNC(=N)N)C(=O)N[C@H](C(=O)N[C@@H](CCCNC(=N)N)C(=O)N[C@@H](Cc1c[nH]c2ccccc12)C(=O)O)CSCCC3=O (H-RCFR[Nva]PCRQLRCRW-OH; linker 2-7-12 via TATA)
The Ki of the first is 3.1-fold lower: 0.072 µM for the first, 0.22 µM for the second. The first binds more tightly here.

First: CC(C)C[C@@H]1NC(=O)[C@H](CCC(N)=O)NC(=O)[C@H](CCCNC(=N)N)NC(=O)[C@@H]2CSCCC(=O)N3CN(CN(C3)C(=O)CCSC[C@H](NC(=O)[C@@H](N)CCCNC(=N)N)C(=O)N[C@@H](Cc3ccc(O)cc3)C(=O)N[C@@H](CCCNC(=N)N)C(=O)N[C@@H](CC(C)C)C(=O)N3CCC[C@H]3C(=O)N2)C(=O)CCSC[C@@H](C(=O)N[C@@H](CCCNC(=N)N)C(=O)N[C@@H](Cc2c[nH]c3ccccc23)C(=O)O)NC(=O)[C@H](CCCNC(=N)N)NC1=O (H-RCYRLPCRQLRCRW-OH; linker 2-7-12 via TATA)
Second: CC(C)C[C@@H]1NC(=O)[C@H](CCC(N)=O)NC(=O)[C@H](CCCNC(=N)N)NC(=O)[C@@H]2CSCCC(=O)N3CN(CN(C3)C(=O)CCSC[C@H](NC(=O)[C@@H](N)CCCNC(=N)N)C(=O)N[C@@H](Cc3ccc(I)cc3)C(=O)N[C@@H](CCCNC(=N)N)C(=O)N[C@@H](CC(C)C)C(=O)N3CCC[C@H]3C(=O)N2)C(=O)CCSC[C@@H](C(=O)N[C@@H](CCCNC(=N)N)C(=O)N[C@@H](Cc2c[nH]c3ccccc23)C(=O)O)NC(=O)[C@H](CCCNC(=N)N)NC1=O
The Ki of the first is 2.9-fold lower: 0.0322 µM for the first, 0.092 µM for the second. The first binds more tightly here.

Going from `CC(C)C[C@@H]1NC(=O)[C@H](CCC(N)=O)NC(=O)[C@H](CCCNC(=N)N)NC(=O)[C@@H]2CSCCC(=O)N3CN(CN(C3)C(=O)CCSC[C@H](NC(=O)[C@@H](N)CCCNC(=N)N)C(=O)N[C@@H](C)C(=O)N[C@@H](CCCNC(=N)N)C(=O)N[C@@H](CC(C)C)C(=O)N3CCC[C@H]3C(=O)N2)C(=O)CCSC[C@@H](C(=O)N[C@@H](CCCNC(=N)N)C(=O)N[C@@H](Cc2c[nH]c3ccccc23)C(=O)O)NC(=O)[C@H](CCCNC(=N)N)NC1=O` (H-RCARLPCRQLRCRW-OH; linker 2-7-12 via TATA) to `CC(C)C[C@@H]1NC(=O)[C@H](CCC(N)=O)NC(=O)[C@H](CCCNC(=N)N)NC(=O)[C@@H]2CSCCC(=O)N3CN(CN(C3)C(=O)CCSC[C@H](NC(=O)[C@@H](N)CCCNC(=N)N)C(=O)N[C@@H](CC(C)C)C(=O)N[C@@H](CCCNC(=N)N)C(=O)N[C@@H](CC(C)C)C(=O)N3CCC[C@H]3C(=O)N2)C(=O)CCSC[C@@H](C(=O)N[C@@H](CCCNC(=N)N)C(=O)N[C@@H](Cc2c[nH]c3ccccc23)C(=O)O)NC(=O)[C@H](CCCNC(=N)N)NC1=O` (H-RCLRLPCRQLRCRW-OH; linker 2-7-12 via TATA), the Ki falls from 0.132 µM to 0.028 µM (4.7-fold). The second binds more tightly here.

Going from `CC(C)C[C@@H]1NC(=O)[C@H](CCC(N)=O)NC(=O)[C@H](CCCNC(=N)N)NC(=O)[C@@H]2CSCCC(=O)N3CN(CN(C3)C(=O)CCSC[C@H](NC(=O)[C@@H](N)CCCNC(=N)N)C(=O)N[C@@H](Cc3ccc([N+](=O)[O-])cc3)C(=O)N[C@@H](CCCNC(=N)N)C(=O)N[C@@H](CC(C)C)C(=O)N3CCC[C@H]3C(=O)N2)C(=O)CCSC[C@@H](C(=O)N[C@@H](CCCNC(=N)N)C(=O)N[C@@H](Cc2c[nH]c3ccccc23)C(=O)O)NC(=O)[C@H](CCCNC(=N)N)NC1=O` to `CC(C)C[C@@H]1NC(=O)[C@H](CCC(N)=O)NC(=O)[C@H](CCCNC(=N)N)NC(=O)[C@@H]2CSCCC(=O)N3CN(CN(C3)C(=O)CCSC[C@H](NC(=O)[C@@H](N)CCCNC(=N)N)C(=O)N[C@@H](Cc3ccc(C(C)(C)C)cc3)C(=O)N[C@@H](CCCNC(=N)N)C(=O)N[C@@H](CC(C)C)C(=O)N3CCC[C@H]3C(=O)N2)C(=O)CCSC[C@@H](C(=O)N[C@@H](CCCNC(=N)N)C(=O)N[C@@H](Cc2c[nH]c3ccccc23)C(=O)O)NC(=O)[C@H](CCCNC(=N)N)NC1=O`, the Ki rises from 0.00164 µM to over 1 µM.

Going from `CC(C)C[C@@H]1NC(=O)[C@H](CCC(N)=O)NC(=O)[C@H](CCCNC(=N)N)NC(=O)[C@@H]2CSCCC(=O)N3CN(CN(C3)C(=O)CCSC[C@H](NC(=O)[C@@H](N)CCCNC(=N)N)C(=O)N[C@@H](Cc3csc4ccccc34)C(=O)N[C@@H](CCCNC(=N)N)C(=O)N[C@@H](CC(C)C)C(=O)N3CCC[C@H]3C(=O)N2)C(=O)CCSC[C@@H](C(=O)N[C@@H](CCCNC(=N)N)C(=O)N[C@@H](Cc2c[nH]c3ccccc23)C(=O)O)NC(=O)[C@H](CCCNC(=N)N)NC1=O` to `Cc1cccc(C[C@@H]2NC(=O)[C@@H](NC(=O)[C@@H](N)CCCNC(=N)N)CSCCC(=O)N3CN4CN(C3)C(=O)CCSC[C@H](NC(=O)[C@@H]3CCCN3C(=O)[C@H](CC(C)C)NC(=O)[C@H](CCCNC(=N)N)NC2=O)C(=O)N[C@@H](CCCNC(=N)N)C(=O)N[C@@H](CCC(N)=O)C(=O)N[C@@H](CC(C)C)C(=O)N[C@@H](CCCNC(=N)N)C(=O)N[C@H](C(=O)N[C@@H](CCCNC(=N)N)C(=O)N[C@@H](Cc2c[nH]c3ccccc23)C(=O)O)CSCCC4=O)c1`, the Ki falls from 0.0068 µM to 0.0037 µM (1.8-fold). The second binds more tightly here.

`CCCC[C@@H]1NC(=O)[C@H](CCC(N)=O)NC(=O)[C@H](CCCNC(=N)N)NC(=O)[C@@H]2CSCCC(=O)N3CN(CN(C3)C(=O)CCSC[C@H](NC(=O)[C@@H](N)CCCNC(=N)N)C(=O)N[C@@H](Cc3ccccc3)C(=O)N[C@@H](CCCNC(=N)N)C(=O)N[C@@H](CC(C)C)C(=O)N3CCC[C@H]3C(=O)N2)C(=O)CCSC[C@@H](C(=O)N[C@@H](CCCNC(=N)N)C(=O)N[C@@H](Cc2c[nH]c3ccccc23)C(=O)O)NC(=O)[C@H](CCCNC(=N)N)NC1=O` and `CC(C)CC[C@@H]1NC(=O)[C@H](CCC(N)=O)NC(=O)[C@H](CCCNC(=N)N)NC(=O)[C@@H]2CSCCC(=O)N3CN(CN(C3)C(=O)CCSC[C@H](NC(=O)[C@@H](N)CCCNC(=N)N)C(=O)N[C@@H](Cc3ccccc3)C(=O)N[C@@H](CCCNC(=N)N)C(=O)N[C@@H](CC(C)C)C(=O)N3CCC[C@H]3C(=O)N2)C(=O)CCSC[C@@H](C(=O)N[C@@H](CCCNC(=N)N)C(=O)N[C@@H](Cc2c[nH]c3ccccc23)C(=O)O)NC(=O)[C@H](CCCNC(=N)N)NC1=O` are within 1.5-fold of each other in Ki: 0.0306 µM for the first, 0.0294 µM for the second.

Compared with `CC[C@H](C)[C@@H]1NC(=O)[C@H](CCCNC(=N)N)NC(=O)[C@H](Cc2ccccc2)NC(=O)[C@@H](NC(=O)[C@@H](N)CCCNC(=N)N)CSCCC(=O)N2CN3CN(C2)C(=O)CCSC[C@H](NC(=O)[C@@H]2CCCN2C1=O)C(=O)N[C@@H](CCCNC(=N)N)C(=O)N[C@@H](CCC(N)=O)C(=O)N[C@@H](CC(C)C)C(=O)N[C@@H](CCCNC(=N)N)C(=O)N[C@H](C(=O)N[C@@H](CCCNC(=N)N)C(=O)N[C@@H](Cc1c[nH]c2ccccc12)C(=O)O)CSCCC3=O` (H-RCFRIPCRQLRCRW-OH; linker 2-7-12 via TATA), `CC(C)CC[C@@H]1NC(=O)[C@H](CCCNC(=N)N)NC(=O)[C@H](Cc2ccccc2)NC(=O)[C@@H](NC(=O)[C@@H](N)CCCNC(=N)N)CSCCC(=O)N2CN3CN(C2)C(=O)CCSC[C@H](NC(=O)[C@@H]2CCCN2C1=O)C(=O)N[C@@H](CCCNC(=N)N)C(=O)N[C@@H](CCC(N)=O)C(=O)N[C@@H](CC(C)C)C(=O)N[C@@H](CCCNC(=N)N)C(=O)N[C@H](C(=O)N[C@@H](CCCNC(=N)N)C(=O)N[C@@H](Cc1c[nH]c2ccccc12)C(=O)O)CSCCC3=O` (H-RCFR[hLeu]PCRQLRCRW-OH; linker 2-7-12 via TATA) is 3-fold higher in Ki: 0.89 µM for the first, 2.7 µM for the second.

With `CC(C)C[C@@H]1NC(=O)[C@H](CCCNC(=N)N)NC(=O)[C@H](Cc2ccccc2)NC(=O)[C@@H](NC(=O)[C@@H](N)CCCNC(=N)N)CSCCC(=O)N2CN3CN(C2)C(=O)CCSC[C@@H](C(=O)N[C@@H](CCCNC(=N)N)C(=O)N[C@@H](Cc2c[nH]c4ccccc24)C(=O)O)NC(=O)[C@H](CCCNC(=N)N)NC(=O)[C@H](CC(C)C)NC(=O)[C@H](CCC(N)=O)NC(=O)[C@H](CCCNC(=N)N)NC(=O)[C@H](CSCCC3=O)NC(=O)[C@H](C)NC1=O` (H-RCFRLACRQLRCRW-OH; linker 2-7-12 via TATA) the Ki was 0.0196 µM.
